Results on 2 molecules are retold here after US20130172320A1, “PYRIDO [4,3-B] INDOLE AND PYRIDO [3,4-B] INDOLE DERIVATIVES AND METHODS OF USE” (priority 2010, published 2013).

Experiment [1] addresses T1, rat adrenergic α1A receptor (Rattus norvegicus, UniProt P43140).
T1 construct: rat adrenergic α1A receptor obtained from Wistar Rat submaxillary glands; from tissue; host or cells: Wistar Rat submaxillary glands
T1 sequence (P43140 1-466): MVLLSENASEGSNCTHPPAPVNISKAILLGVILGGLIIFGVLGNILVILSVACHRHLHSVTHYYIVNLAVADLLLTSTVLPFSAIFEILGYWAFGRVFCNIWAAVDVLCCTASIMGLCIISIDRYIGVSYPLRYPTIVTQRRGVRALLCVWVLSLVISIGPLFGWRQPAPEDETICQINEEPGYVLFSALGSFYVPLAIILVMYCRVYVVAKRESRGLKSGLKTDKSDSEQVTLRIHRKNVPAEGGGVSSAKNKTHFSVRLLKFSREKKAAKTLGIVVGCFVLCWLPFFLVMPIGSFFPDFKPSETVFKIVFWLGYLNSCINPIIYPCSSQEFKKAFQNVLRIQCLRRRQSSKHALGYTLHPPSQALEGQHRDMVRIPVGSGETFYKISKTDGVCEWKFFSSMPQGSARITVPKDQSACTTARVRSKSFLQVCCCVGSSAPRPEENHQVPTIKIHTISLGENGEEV
Description: Adrenergic α1A radioligand binding ([3H]Prazosin). Further details: species or system Wistar Rat. The settings on record: compound at 0.1 μM; read-out: Percentage inhibition of ligand binding, Adrenergic (0.1 μM) a1A. How it is done: To evaluate in radioligand binding assays the activity of compounds of the invention, rat adrenergic α1A receptor obtained from Wistar Rat submaxillary glands (Michel, A. et al, Br. J. Pharmacol. 98:883, 1989) in a modified Tris-HCl buffer (50 mM Tris-HCl buffer, pH 7.4, 0.5 mM EDTA) was used. Compounds of the invention were incubated with 0.25 nM [^3H]Prazosin for 60 min at 25° C. Non-specific binding was estimated in the presence of 10 μM phentolamine Receptor proteins were filtered and washed, the filters were then counted to determine [^3H]Prazosin specifically bound. Compounds of the invention were screened at 1 μM or lower, using 1% DMSO as vehicle. Biochemical assay results are presented as the percent inhibition of specific binding in Table 3.

Experiment [2] deals with T2, human recombinant adrenergic α2A receptor (Homo sapiens, UniProt P08913).
T2 construct: expressed in transfected cells; host or cells: insect Sf9 cells
T2 sequence (P08913 1-465): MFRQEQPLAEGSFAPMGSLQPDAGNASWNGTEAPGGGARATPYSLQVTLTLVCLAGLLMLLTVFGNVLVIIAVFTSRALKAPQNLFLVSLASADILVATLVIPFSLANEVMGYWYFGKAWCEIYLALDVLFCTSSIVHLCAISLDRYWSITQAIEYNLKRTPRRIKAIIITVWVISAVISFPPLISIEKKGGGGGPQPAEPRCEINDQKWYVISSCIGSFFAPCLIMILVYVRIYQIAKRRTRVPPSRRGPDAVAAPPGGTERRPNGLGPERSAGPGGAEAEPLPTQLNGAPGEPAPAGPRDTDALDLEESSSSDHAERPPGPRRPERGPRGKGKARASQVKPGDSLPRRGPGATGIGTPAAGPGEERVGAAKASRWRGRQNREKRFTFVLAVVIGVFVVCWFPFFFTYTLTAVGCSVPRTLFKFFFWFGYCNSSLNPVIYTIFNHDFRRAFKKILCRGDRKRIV
Description: Adrenergic α2A radioligand binding ([3H]MK-912). Conditions: compound at 0.1 μM; read-out: Percentage inhibition of ligand binding, Adrenergic (0.1 μM) a2A. The protocol:
To evaluate in radioligand binding assays the activity of compounds of the invention, human recombinant adrenergic α2A receptor expressed in insect Sf9 cells (Uhlen, S. et al, J. Pharmacol. Exp. Ther. 271:1558, 1994) in a modified Tris-HCl buffer (50 mM Tris-HCl, pH 7.4, 12.5 mM MgCl2, 2 mM EDTA) was used. Compounds of invention were incubated with 1 nM […] for 60 min at 25° C. MK912 is (2S-trans)-1,3,4,5′,6,6′,7,12b-octahydro-1′,3′-dimethyl-spiro[2H-benzofuro[2,3-a]quinolizine-2,4′(111)-pyrimidin]-2′(3′H)-one hydrochloride Non-specific binding was estimated in the presence of 10 μM WB-4101 (2-(2,6-Dimethoxyphenoxyethyl)aminomethyl-1,4-benzodioxane hydrochloride). Receptor proteins were filtered and washed, the filters were then counted to determine [^3H]MK-912 specifically bound. Compounds were screened at 1 μM or lower, using 1% DMSO as vehicle. Biochemical assay results are presented as the percent inhibition of specific binding in Table 3.

Experiment [3] has as its target T3, human recombinant serotonin (5-Hydroxytryptamine) 5-HT2C receptor (Homo sapiens, UniProt P28335).
T3 construct: expressed in transfected cells; host or cells: Chinese hamster ovary (CHO) K1 cells
T3 sequence (P28335 33-458): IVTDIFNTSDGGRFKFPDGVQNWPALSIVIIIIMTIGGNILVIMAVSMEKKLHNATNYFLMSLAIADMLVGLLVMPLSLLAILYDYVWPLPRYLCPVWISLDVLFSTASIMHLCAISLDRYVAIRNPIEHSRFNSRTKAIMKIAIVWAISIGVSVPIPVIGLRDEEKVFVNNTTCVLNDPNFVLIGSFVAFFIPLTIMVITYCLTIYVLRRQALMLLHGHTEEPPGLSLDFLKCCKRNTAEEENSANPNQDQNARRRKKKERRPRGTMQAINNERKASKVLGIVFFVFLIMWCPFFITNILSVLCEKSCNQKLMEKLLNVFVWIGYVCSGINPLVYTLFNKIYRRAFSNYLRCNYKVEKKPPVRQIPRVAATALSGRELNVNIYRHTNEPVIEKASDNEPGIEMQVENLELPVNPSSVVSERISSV
Description: Serotonin 5-HT2C radioligand binding ([3H]Mesulergine). Conditions: compound at 0.1 μM; read-out: Percentage inhibition of ligand binding, Serotonin (0.1 μM) 5-HT2C. The protocol: To evaluate in radioligand binding assays the activity of compounds of the invention, human recombinant serotonin (5-Hydroxytryptamine) 5-HT2C receptor expressed in Chinese hamster ovary (CHO) K1 cells (Wolf, W. et al, J. Neurochem. 69:1449, 1997) in a modified Tris-HCl buffer (50 mM Tris-HCl, pH 7.4, 0.1% Ascorbic Acid, 10 μM Pargyline) was used. Compounds of the invention were incubated with 1 nM [^3H]Mesulergine for 60 min at 25° C. Non-specific binding was estimated in the presence of 1 μM Mianserin. Receptor proteins were filtered and washed, the filters were then counted to determine [^3H]Mesulergine specifically bound. Compounds were screened at 1 μM or lower, using 1% DMSO as vehicle. Biochemical assay results are presented as the percent inhibition of specific binding in Table 4.

On to `C#CCC1(C)CN(C)Cc2c1n(C)c1ccc(C)cc21` (stereo not drawn) [Compound 47, 2,4,5,8-tetramethyl-4-(prop-2-ynyl)-2,3,4,5-tetrahydro-1H-pyrido[4,3-b]indole], for which the inhibition (commonly the change of the read-out against control, counted positive when it falls) at 0.1 µM in experiment [1] stood at 16%; in experiment [2], 15%; in experiment [3], 19%.
Consider `Cc1ccc2c(c1)c1c(n2C)C(C)(CCc2nc(-c3ccccc3)cs2)CN(C)C1` (stereo not drawn) [Compound 48], for which the results for the inhibition at 0.1 µM in experiment [1], in experiment [2] and in experiment [3] were 34%, 2% and 25%, respectively.
